This is an account of results in ChEMBL document CHEMBL2331210, “New 2-benzylsulfanyl-nicotinic acid based 1,3,4-oxadiazoles: their synthesis and biological evaluation” (2013).

Values after ≈ are worked out from the molar mass of the structure shown.

Format in all cases: functional
For one experiment, the system named is Aspergillus niger. Kind of experiment: Antimicrobial activity against Aspergillus niger MTCC 282 assessed as growth inhibition measured after overnight incubation by broth dilution method.
In the next experiment the test system is Staphylococcus aureus. Kind of experiment: Antimicrobial activity against Staphylococcus aureus MTCC 96 assessed as growth inhibition measured after overnight incubation by broth dilution method.
The test system of the next experiment is Candida albicans. Kind of experiment: Antimicrobial activity against Candida albicans MTCC 227 assessed as growth inhibition measured after overnight incubation by broth dilution method.
In another experiment the test system is Escherichia coli. Kind of experiment: Antimicrobial activity against Escherichia coli MTCC 443 assessed as growth inhibition measured after overnight incubation by broth dilution method.
In another experiment the test system is Pseudomonas aeruginosa. Kind of experiment: Antimicrobial activity against Pseudomonas aeruginosa MTCC 2488 assessed as growth inhibition measured after overnight incubation by broth dilution method.
Another experiment has as its system Streptococcus pyogenes. Kind of experiment: Antimicrobial activity against Streptococcus pyogenes MTCC 442 assessed as growth inhibition measured after overnight incubation by broth dilution method.
In another experiment the test system is Aspergillus clavatus. Kind of experiment: Antimicrobial activity against Aspergillus clavatus MTCC 1323 assessed as growth inhibition measured after overnight incubation by broth dilution method.
The subject of experiment [1] is Mycobacterium tuberculosis. Kind of experiment: Antitubercular activity against Mycobacterium tuberculosis H37Rv assessed as growth inhibition after 12 to 28 days by L.J. agar MIC method. The following applies: for MIC: Mycobacterium tuberculosis, H37Rv.

Consider `COc1cc(OC)nc(NC(=O)CCl)n1`, for which the minimal inhibitory concentration (MIC) in the experiment with Aspergillus niger was determined as 1000 mg/L (≈ 4320 µM); in the experiment on Staphylococcus aureus, 500 mg/L (≈ 2160 µM); in the experiment with Candida albicans, 500 mg/L (≈ 2160 µM); with Escherichia coli, 100 mg/L (≈ 432 µM); in the experiment with Pseudomonas aeruginosa, 125 mg/L (≈ 540 µM); in the experiment on Streptococcus pyogenes, 125 mg/L (≈ 540 µM). The results for the MIC (with Aspergillus clavatus; in experiment [1]) were over 1000 mg/L and 250 mg/L (≈ 1080 µM), respectively. In experiment [1], the “growth inhibition (GI)” value was found to be 98%.

For the molecule `Cc1cnc(NC(=O)CCl)s1`, the MIC turned out to be 500 mg/L (≈ 2620 µM) in the experiment on Aspergillus niger; 500 mg/L (≈ 2620 µM) with Staphylococcus aureus; 200 mg/L (≈ 1050 µM) in the experiment with Candida albicans; 250 mg/L (≈ 1310 µM) in the experiment on Escherichia coli; 250 mg/L (≈ 1310 µM) in the experiment with Pseudomonas aeruginosa; 250 mg/L (≈ 1310 µM) in the experiment with Streptococcus pyogenes. Also, the minimum inhibitory concentration (MIC) in the experiment on Aspergillus clavatus was determined as 500 mg/L (≈ 2620 µM); in experiment [1], 250 mg/L (≈ 1310 µM). Besides, in experiment [1], the “growth inhibition (GI)” value is reported as 97%.

For the molecule `O=C(CCl)Nc1nc(Cl)cc(Cl)n1`, the minimal inhibitory concentration (MIC) in the experiment with Aspergillus niger is over 1000 mg/L; with Staphylococcus aureus, 500 mg/L (≈ 2080 µM); in the experiment on Candida albicans, 250 mg/L (≈ 1040 µM); in the experiment with Escherichia coli it was 200 mg/L (≈ 832 µM); in the experiment on Pseudomonas aeruginosa it was 500 mg/L (≈ 2080 µM); in the experiment with Streptococcus pyogenes, 200 mg/L (≈ 832 µM). Moreover, the figures for the MIC (in the experiment on Aspergillus clavatus; in experiment [1]) were over 1000 mg/L and 500 mg/L (≈ 2080 µM), respectively. The “growth inhibition (GI)” value in experiment [1] came to 88%.

As to `O=C(CCl)Nn1cnnc1`, the minimum inhibitory concentration (MIC) with Aspergillus niger was over 1000 mg/L; in the experiment with Staphylococcus aureus, 500 mg/L (≈ 3110 µM); in the experiment on Candida albicans, 1000 mg/L (≈ 6230 µM); in the experiment on Escherichia coli, 250 mg/L (≈ 1560 µM); with Pseudomonas aeruginosa, 250 mg/L (≈ 1560 µM); in the experiment on Streptococcus pyogenes, 250 mg/L (≈ 1560 µM). Also, the figures for the minimal inhibitory concentration (MIC) (in the experiment with Aspergillus clavatus; in experiment [1]) were over 1000 mg/L and 1000 mg/L (≈ 6230 µM), respectively. Besides, the “growth inhibition (GI)” value in experiment [1] is on record as 90%.

With `CN1CCN(C(=O)CCl)CC1`, the MIC in the experiment on Aspergillus niger is over 1000 mg/L; in the experiment on Staphylococcus aureus, 250 mg/L (≈ 1420 µM); in the experiment with Candida albicans, 1000 mg/L (≈ 5660 µM); in the experiment with Escherichia coli it was 125 mg/L (≈ 708 µM); with Pseudomonas aeruginosa, 100 mg/L (≈ 566 µM); in the experiment on Streptococcus pyogenes, 100 mg/L (≈ 566 µM). Besides, the values for the MIC (with Aspergillus clavatus; in experiment [1]) were 500 mg/L (≈ 2830 µM) and 250 mg/L (≈ 1420 µM), respectively. Besides, the “growth inhibition (GI)” value in experiment [1] turned out to be 99%.

In the case of `Cc1ccc2sc(-c3ccc(NC(=O)CCl)cc3)nc2c1`, the minimum inhibitory concentration (MIC) in the experiment on Aspergillus niger worked out at 1000 mg/L (≈ 3160 µM); in the experiment with Staphylococcus aureus, 250 mg/L (≈ 789 µM); in the experiment on Candida albicans, 500 mg/L (≈ 1580 µM); in the experiment with Escherichia coli, 125 mg/L (≈ 395 µM); with Pseudomonas aeruginosa it was 100 mg/L (≈ 316 µM); in the experiment on Streptococcus pyogenes it was 100 mg/L (≈ 316 µM). For the same molecule, the figures for the MIC (with Aspergillus clavatus; in experiment [1]) were 500 mg/L (≈ 1580 µM) and 200 mg/L (≈ 631 µM), respectively. The “growth inhibition (GI)” value in experiment [1] came out at 99%.

With `NNC(=O)c1cccnc1SCc1ccccc1`, the MIC in the experiment on Aspergillus niger turned out to be 500 mg/L (≈ 1930 µM); in the experiment on Staphylococcus aureus it was 125 mg/L (≈ 482 µM); with Candida albicans, 500 mg/L (≈ 1930 µM); in the experiment with Escherichia coli, 125 mg/L (≈ 482 µM); in the experiment with Pseudomonas aeruginosa, 200 mg/L (≈ 771 µM); in the experiment with Streptococcus pyogenes, 125 mg/L (≈ 482 µM). Also, the minimal inhibitory concentration (MIC) (with Aspergillus clavatus; in experiment [1]) was 250 mg/L (≈ 964 µM) each time. Also, the “growth inhibition (GI)” value in experiment [1] came to 99%.

For `S=c1[nH]nc(-c2cccnc2SCc2ccccc2)o1`, the MIC in the experiment with Aspergillus niger stood at 1000 mg/L (≈ 3320 µM); in the experiment on Staphylococcus aureus, 100 mg/L (≈ 332 µM); in the experiment with Candida albicans, 1000 mg/L (≈ 3320 µM); in the experiment with Escherichia coli it was 100 mg/L (≈ 332 µM); in the experiment with Pseudomonas aeruginosa, 125 mg/L (≈ 415 µM); with Streptococcus pyogenes it was 100 mg/L (≈ 332 µM). Moreover, the MIC in the experiment on Aspergillus clavatus amounted to 200 mg/L (≈ 664 µM); in experiment [1], 100 mg/L (≈ 332 µM). Further, in experiment [1], the “growth inhibition (GI)” value came out at 99%.

As to `O=C(CSc1nnc(-c2cccnc2SCc2ccccc2)o1)Nn1cnnc1`, the minimal inhibitory concentration (MIC) in the experiment on Aspergillus niger came to 1000 mg/L (≈ 2350 µM); in the experiment with Staphylococcus aureus it was 250 mg/L (≈ 588 µM); with Candida albicans, 100 mg/L (≈ 235 µM); in the experiment on Escherichia coli it was 100 mg/L (≈ 235 µM); with Pseudomonas aeruginosa, 125 mg/L (≈ 294 µM); with Streptococcus pyogenes it was 125 mg/L (≈ 294 µM). The MIC is 500 mg/L (≈ 1180 µM) with Aspergillus clavatus and 25 mg/L (≈ 58.8 µM) in experiment [1]. For the same molecule, the “growth inhibition (GI)” value in experiment [1] was determined as 99%.

With `N#CSc1ccc2nc(NC(=O)CSc3nnc(-c4cccnc4SCc4ccccc4)o3)sc2c1`, the MIC in the experiment on Aspergillus niger is 100 mg/L (≈ 182 µM); in the experiment with Staphylococcus aureus, 250 mg/L (≈ 456 µM); with Candida albicans it was 500 mg/L (≈ 911 µM); with Escherichia coli, 250 mg/L (≈ 456 µM); in the experiment on Pseudomonas aeruginosa, 62.5 mg/L (≈ 114 µM); in the experiment with Streptococcus pyogenes, 12.5 mg/L (≈ 22.8 µM). Also, the results for the MIC (with Aspergillus clavatus; in experiment [1]) were 250 mg/L (≈ 456 µM) and 50 mg/L (≈ 91.1 µM), respectively. The “growth inhibition (GI)” value in experiment [1] came to 99%.

Regarding `CCOC(=O)CSc1nnc(-c2cccnc2SCc2ccccc2)o1`, the MIC in the experiment on Aspergillus niger was found to be 1000 mg/L (≈ 2580 µM); in the experiment on Staphylococcus aureus, 500 mg/L (≈ 1290 µM); with Candida albicans, 1000 mg/L (≈ 2580 µM); with Escherichia coli it was 500 mg/L (≈ 1290 µM); with Pseudomonas aeruginosa, 200 mg/L (≈ 516 µM); in the experiment on Streptococcus pyogenes it was 125 mg/L (≈ 323 µM). Besides, the MIC with Aspergillus clavatus came to 1000 mg/L (≈ 2580 µM); in experiment [1], 100 mg/L (≈ 258 µM). Moreover, the “growth inhibition (GI)” value in experiment [1] was found to be 98%.

As for `c1ccc(CSc2ncccc2-c2nnc(SCC3CO3)o2)cc1` (configuration not stated), the minimal inhibitory concentration (MIC) was 1000 mg/L (≈ 2800 µM) with Aspergillus niger; 62.5 mg/L (≈ 175 µM) with Staphylococcus aureus; 500 mg/L (≈ 1400 µM) in the experiment on Candida albicans; 62.5 mg/L (≈ 175 µM) in the experiment with Escherichia coli; 125 mg/L (≈ 350 µM) in the experiment with Pseudomonas aeruginosa; 250 mg/L (≈ 699 µM) with Streptococcus pyogenes. Further, the MIC in the experiment on Aspergillus clavatus stood at 1000 mg/L (≈ 2800 µM); in experiment [1] it was 500 mg/L (≈ 1400 µM). Moreover, the “growth inhibition (GI)” value in experiment [1] was found to be 97%.

On to `CC1(C)S[C@@H]2[C@H](NC(=O)[C@H](N)c3ccccc3)C(=O)N2[C@H]1C(=O)O` [AMPICILLIN], for which the minimal inhibitory concentration (MIC) with Staphylococcus aureus came out at 250 mg/L (≈ 715 µM); with Escherichia coli, 100 mg/L (≈ 286 µM); with Pseudomonas aeruginosa it was 100 mg/L (≈ 286 µM); in the experiment on Streptococcus pyogenes, 100 mg/L (≈ 286 µM).

For `COC1=CC(=O)C[C@@H](C)[C@]12Oc1c(Cl)c(OC)cc(OC)c1C2=O` [GRISEOFULVIN], the MIC was 100 mg/L (≈ 283 µM) with Aspergillus niger, 500 mg/L (≈ 1420 µM) with Candida albicans and 100 mg/L (≈ 283 µM) in the experiment on Aspergillus clavatus.

Take `CO[C@H]1/C=C/O[C@@]2(C)Oc3c(C)c(O)c4c(O)c(c(/C=N/N5CCN(C)CC5)c(O)c4c3C2=O)NC(=O)/C(C)=C\C=C\[C@H](C)[C@H](O)[C@@H](C)[C@@H](O)[C@@H](C)[C@H](OC(C)=O)[C@@H]1C` [RIFAMPIN]: in experiment [1], the “growth inhibition (GI)” value is 99% and the MIC worked out at 40 mg/L (≈ 48.6 µM).
